Measured values published in PMC9354954, “Assessing Bioavailability and Bioactivity of 4-Hydroxythiazolidine-2-Thiones, Newly Discovered Glucosinolate Degradation Products Formed During Domestic Boiling of Cabbage” (Frontiers in Nutrition, 2022).
Where two headings read alike, the source gives them in different places.

Experiments:
HepG2 cells = test: Uptake into HepG2 cells (supernatant before and after cell lysis, LC-MS/MS); type: in vitro ADME, human; settings: for Amount of analyte in supernatant after cell lysis / Amount of analyte in supernatant before cell lysis / Increase due to cell lysis: HepG2, 100 μM, 24 h
Experimental: Cells originated from a human liver cancer cell line (HepG2) were grown in RPMI-1640 medium + 10% FBS + 1% penicillin/streptomycin under cell culture conditions (37°C and 5% CO2 atmosphere) in T-75 flasks (Sarsted, Nümbrecht, Germany) until a confluence of approximately 50%. This medium and growing conditions were used for all experiments with HepG2 cells in this study. The medium was exchanged by fresh medium for control samples, or by fresh medium containing a concentration of 100 μM allyl HTT or 4-MSOB HTT. Afterward, the cells were incubated for an additional 24 h (each prepared for three cell passages). In the case of cell experiments, all allyl HTT or 4-MSOB HTT spiked media were sterile filtered using Filtropur S 0.2 sterile from Sarstedt AG & Co (Nümbrecht, Germany). After treatment, the medium of HepG2 cells (~80% confluence) was removed and cells were washed three times with 6 mL of PBS. In a second approach performed only for 4-MSOB HTT, treated cells were washed 6 times with 6 mL of PBS. The higher number of washing steps in the case of 4-MSOB HTT was chosen to remove the analyte residues from the former treatment medium more effectively. This enabled to detect a significant increase in analyte amount due to cell lysis when comparing the analyte amount in the supernatant before and after cell lysis, as only three washing steps for allyl HTT and control were not sufficient to detect a significant difference in 4-MSOB HTT amounts due to cell lysis treatment. Afterward, cells were detached from the surface by incubation with 1.5 mL trypsin/EDTA (1 x) for 5 min at 37°C. The cell suspension was transferred into a 2-mL micro reaction vessel and centrifuged for 2 min at 560 g. Then, the cell pellet was washed carefully twice with 1.5 mL of pure water to remove further residues of the analyte spiked medium and to reduce the salt concentration in the samples for LC-MS/MS measurements. For cell lysis, the micro reaction vessels with cell pellet and approximately 60 μL supernatant were sonicated for 15 min in an ultrasonic bath, followed by the addition of 40 μL of MeCN and an additional sonication step for 15 min. Afterward, the cell suspension was centrifuged for 3 min at 4,000 g, and the supernatant, as well as the supernatant before cell lysis, were analyzed by LC-MS/MS. A standard addition method was used, with added amounts of 3 pmol of allyl HTT and 1.2 pmol of 4-MSOB HTT. The mass spectrometry parameters were like QTRAP method 1 (see Section Uptake and Excretion of 4-Hydroxythiazolidine-2-Thiones From a Red Cabbage Meal – A Human Self-Experiment) with an injection volume of 10 μL. The used HPLC method 3 was a gradient of A = water and B = MeCN with 0 to 5 min 2% B, an increase to 14 min up to 98% B, holding for 5 min followed by a decrease to 2% B at 20 min and re-equilibration with 2% B for 4 min, using a flow rate of 300 μL/min, Agilent Zorbax Eclipse Plus C8 column (see Section Stability of 4-Hydroxythiazolidine-2-Thiones in a Stomach Model) and a column oven temperature of 35°C. The given results are the mean of the three biological replicates ± SD. […] The significance of the difference in analyte amount before and after cell lysis was determined by t-test for independent samples per variable using the STATISTICA version 13.5 software (StatSoft, Hamburg, Germany) with a significance level of p ≤ 0.05.

[1] = Stability in an in vitro stomach model; type: in vitro ADME; settings: 100 μM, 2 h, 37°C, stomach model solution pH 2
Experimental: To investigate the stability of the HTTs in the process of nutrient absorption, allyl HTT and 4-MSOB HTT were incubated (prepared as triplicates) at a concentration of 100 μM in an in vitro stomach model solution containing 2.9 g/L NaCl, 0.7 g/L KCl, 0.27 g/L KH2PO4, 0.78 g/L pepsin, and 3 g/L mucin-type II and adjusted with 1 M HCl to pH 2.0 based on literature ([25]). To simulate the stomach, samples were shaken slightly for 2 h at 200 rpm in a thermoshaker (MHR 23, Hettich Benelux B.V, Netherlands) at 37°C. Afterward, 500 μL of MeCN were added to 500 μL of stomach model solution to precipitate proteins and salts. The suspension was centrifuged for 3 min at 4,000 g and the supernatant was analyzed by HPLC-UV at a wavelength of 274 ± 2 nm. The stability of allyl HTT and 4-MSOB HTT in the stomach model was determined by the recovery compared to incubation in pure water at room temperature. […]

[2] = inverse exposure: spiked in the lower compartment, 2 min
[3] = inverse exposure: spiked in the lower compartment, 1 h
[4] = inverse exposure: spiked in the lower compartment, 2 h
[5] = inverse exposure: spiked in the lower compartment, 24 h
[6] = spiked in the upper compartment, 2 min
[7] = spiked in the upper compartment, 1 h
[8] = spiked in the upper compartment, 2 h
[9] = spiked in the upper compartment, 24 h

Structure (SMILES)	Amount of analyte in supernatant after cell lysis (HepG2 cells; 3 washing steps)	Amount of analyte in supernatant before cell lysis (HepG2 cells; 3 washing steps)	Increase due to cell lysis (HepG2 cells; 3 washing steps)	Amount of analyte in supernatant after cell lysis (HepG2 cells; 6 washing steps)	Amount of analyte in supernatant before cell lysis (HepG2 cells; 6 washing steps)	Increase due to cell lysis (HepG2 cells; 6 washing steps)	recovery compared to the pure water control reference [1]	Concentration ratio of compartment non-spiked vs. spiked (Caco-2 cell layer; [2])	Concentration ratio of compartment non-spiked vs. spiked (Caco-2 cell layer; [3])	Concentration ratio of compartment non-spiked vs. spiked (Caco-2 cell layer; [4])	Concentration ratio of compartment non-spiked vs. spiked (Caco-2 cell layer; [5])	Concentration ratio of compartment non-spiked vs. spiked (Caco-2 cell layer; [6])	Concentration ratio of compartment non-spiked vs. spiked (Caco-2 cell layer; [7])	Concentration ratio of compartment non-spiked vs. spiked (Caco-2 cell layer; [8])	Concentration ratio of compartment non-spiked vs. spiked (Caco-2 cell layer; [9])	measured ratio for the higher uptake of allyl HTT compared to 4-MSOB HTT (HepG2 cells; HepG2 cells)	measured ratio for the higher uptake of allyl HTT compared to 4-MSOB HTT (Caco-2 cell layer; human, Caco-2, 100 μM)
C[S+]([O-])CCCCN1C(=S)SCC1O (centres unmarked) [4-MSOB HTT, 4-hydroxy-3-(4-(methylsulfinyl)butyl)thiazolidine-2-thione]	810 ± 140 fmol	760 ± 190 fmol	56 ± 55 fmol	21 ± 5 fmol	1.7 ± 0.3 fmol	20 ± 5 fmol	98 ± 3%	0%	5%	11%	99%	0%	1%	3%	54%	–	–
C=CCN1C(=S)SCC1O (centres unmarked) [allyl HTT, 3-allyl-4-hydroxythiazolidine-2-thione]	1,060 ± 140 fmol	520 ± 170 fmol	540 ± 160 fmol	–	–	–	98 ± 2%	0%	39%	64%	102%	1%	17%	42%	96%	27 fold	10 fold
